These results are taken from patent publication US20250186442A1, “Obicetrapib and Ezetimibe Combination Treatment and Fixed Dose Pharmaceutical Compositions” (NewAmsterdam Pharma B.V., priority 2022, published 2025).

The nature of data set [1]: Kinetic solubility in FaSSIF (pH 6.5) at 37° C. Type of data set: physicochemical. As to conditions: FaSSIF pH 6.5, 37° C., as obicetrapib free acid. An excerpt:
(§1) The amorphous form has a higher kinetic solubility and dissolution rate than the crystalline form (and by extension obicetrapib itself). Both crystalline and amorphous obicetrapib hemicalcium kinetic solubility determinations were made in biorelevant media at different pHs, namely at about 5.0 (FeSSIF conditions) and at pH of about 6.5 (FaSSIF) conditions as set forth in Example 11.28.
The concentrations in Table X are those of obicetrapib (i.e., the free acid).
(§2) The solids were magnetically stirred at 600 RPM in a shaker bath and samples were drawn with a 1.0 ml syringe at T=15 mins, 30 mins, 60 mins, 90 mins and 120 mins. The solubility was measured using HPLC method provided by the client. The compound was added to 4.0 ml glass vials at approximately 20.0 mg/ml. Samples were agitated with a vortex mixer for about 5 minutes to ensure the presence of undissolved excess powder. The sample collected at each time point was centrifuged at 1200 RPM, filtered with 0.45 μm Polytetrafluoroethylene (PTFE) filters and diluted with methanol before HPLC analysis. In order to minimize the effect of potential analyte adsorption on the filter, the initial 0.5 mL of supernatant passing through the filter was discarded prior to collecting sample for HPLC analysis.

Data set [2] in a line: Kinetic solubility in FeSSIF (pH 5.0) at 37° C. Type of data set: physicochemical. To be noted: FeSSIF pH 5.0, 37° C., as obicetrapib free acid.
Description: as §1
The concentrations in Table W are those of obicetrapib (i.e., the free acid).
as §2

Data set [3] can be described thus: Stability study at 70° C./75% RH (XRPD physical stability, HPLC purity). Type of data set: physicochemical. As to conditions: 70° C. at 75% relative humidity. An excerpt: FIG. 54 is a plot of x-ray powder diffraction pattern taken of crystalline obicetrapib hemicalcium, and FIG. 55 is a plot of x-ray powder diffraction patterns taken of crystalline obicetrapib hemicalcium under stress conditions. In FIG. 55, there are four diffraction patterns shown based on stability study set forth in Example 11.27. Pattern 1 is an x-ray powder diffraction pattern of a sample of amorphous obicetrapib hemicalcium. Pattern 2 is the x-ray powder diffraction pattern of a sample of crystalline obicetrapib hemicalcium. In pattern 3, the sample of crystalline obicetrapib hemicalcium was exposed to 70° C. at 75% relative humidity for one day. […] Pattern 1 was taken before the sample was placed on stability.
Stability study was conducted on crystalline and amorphous forms of obicetrapib at 70° C./75% relative humidity (RH). The solids were placed into a 4.0 ml glass vial without caps (open condition) and stored at 70° C./75% RH. Samples were pulled out of the stability chamber at day 1 (24 hours) and at 7-day time point. The solids were analyzed by XRPD for physical stability and by HPLC for chemical purity. The sample collected at each time point was dissolved in methanol before HPLC analysis. In order to minimize the effect of potential analyte adsorption on the filter, the initial 0.5 mL of supernatant passing through the filter was discarded prior to collecting sample for HPLC analysis. Purity for each sample was determined based on peak area percent and compared to the sample at T=0.

For data set [4] the following is noted: in water; cited from earlier work.
The subject of data set [5] is LDL-C. The experiment in a line: ROSE2 phase 2b clinical trial - LDL-C. Type of data set: in vivo, human. To be noted: ROSE2; ezetimibe added on top of obicetrapib. How it is done: The primary objective of this study is to evaluate the effect of obicetrapib 10 mg+ezetimibe 10 mg combination therapy compared with placebo, when used as an adjunct to high-intensity statin therapy, on LDL-C at Day 84.
The secondary objectives of this study include the following, in hierarchical order: • To evaluate the effect of obicetrapib 10 mg monotherapy compared with placebo, when used as an adjunct to high-intensity statin therapy, on LDL-C at Day 84; • To evaluate the effect of obicetrapib 10 mg+ezetimibe 10 mg combination therapy compared with placebo, when used as an adjunct to high-intensity statin therapy, on ApoB at Day 84; and • To evaluate the effect of obicetrapib 10 mg monotherapy compared with placebo, when used as an adjunct to high-intensity statin therapy, on ApoB at Day 84.
This study will be a placebo-controlled, double-blind, randomized, Phase 2 study to evaluate the efficacy, safety, and tolerability of obicetrapib 10 mg, both in combination with ezetimibe 10 mg and as monotherapy, as an adjunct to high-intensity statin therapy. This study will take place at approximately 20 sites in the United States.
Up to 2 weeks after the Screening Visit, participants will return to the site on Day 1 (Visit 2) and confirm study eligibility before being randomized and beginning treatment. Approximately 114 eligible participants (38 participants per treatment group) will be randomized in a 1:1:1 ratio to 1 of the following treatment groups: • Combination therapy: Obicetrapib 10 mg+ezetimibe 10 mg (administered as one 10 mg obicetrapib tablet and one 10 mg ezetimibe capsule); • Obicetrapib monotherapy: Obicetrapib 10 mg (administered as one 10 mg obicetrapib tablet and 1 placebo capsule); or • Placebo (administered as 1 placebo tablet and 1 placebo capsule).
During the 12-week Treatment Period, the assigned study drugs will be administered by the participants orally with water, once daily on Day 1 to Day 84 at approximately the same time each morning. Participants will return to the site on Day 28 (+2 days), Day 84 (+2 days), and Day 112 (+2 days) for efficacy, safety, and pharmacokinetic (PK) assessments. Participants, Investigators, the Clinical Research Organization (CRO), and the Sponsor will be blinded to all lipid results from Day 1 (Visit 2) for the first participant until all enrolled participants complete the Day 84 (End of Treatment) visit or are withdrawn from the study, in order to protect blinding to treatment assignment.
The primary efficacy endpoint is the percent change from Day 1 to Day 84 in LDL-C for the obicetrapib 10 mg+ezetimibe 10 mg combination treatment group compared with the placebo group.
The secondary efficacy endpoints include the following, in hierarchical order: • Percent change from Day 1 to Day 84 in LDL-C for the obicetrapib 10 mg monotherapy • treatment group compared with the placebo group; • Percent change from Day 1 to Day 84 in ApoB for the obicetrapib 10 mg+ezetimibe 10 mg • combination treatment group compared with the placebo group; and • Percent change from Day 1 to Day 84 in ApoB for the obicetrapib 10 mg monotherapy treatment group compared with the placebo group.
The exploratory efficacy endpoints include the following: • Percent change from Day 1 to Day 84 in non-HDL-C, VLDL-C, HDL-C, TG, ApoE, Lp(a), and HDL-ApoE for the obicetrapib 10 mg+ezetimibe 10 mg combination treatment group compared with the placebo group and for the obicetrapib 10 mg monotherapy treatment group compared with the placebo group; and • Proportion of participants at Day 84 that achieve LDL-C<2.6 mmol/L (<100 mg/dL), LDL-C<1.8 mmol/L (<70 mg/dL), and LDL-C<1.3 mmol/L (<50 mg/dL) for the obicetrapib 10 mg+ezetimibe 10 mg combination treatment group compared with the placebo group and for the obicetrapib 10 mg monotherapy treatment group compared with the placebo group. […]

Data set [6] deals with LDL-C. To be noted: cited from earlier work.
The nature of data set [7]: Moisture uptake at high relative humidity (hygroscopicity). Type of data set: physicochemical. As to conditions: relative humidities approaching 90%. An excerpt:
When exposed to relative humidities approaching 90%, moisture uptake has been measured to be typically less than about 5% for example. […] Other drawbacks commonly associated with manufacturing and using amorphous materials are similarly not present. For example, amorphous materials are often challenging to make chemically pure.

In the case of `CCOC(=O)N1c2ccc(C(F)(F)F)cc2[C@@H](N(Cc2cc(C(F)(F)F)cc(C(F)(F)F)c2)c2ncc(OCCCC(=O)[O-])cn2)C[C@H]1CC.CCOC(=O)N1c2ccc(C(F)(F)F)cc2[C@@H](N(Cc2cc(C(F)(F)F)cc(C(F)(F)F)c2)c2ncc(OCCCC(=O)[O-])cn2)C[C@H]1CC.[Ca+2]` [Crystalline obicetrapib hemicalcium, reference compound], the “Concentration in Solution” value in data set [1] (15 mins) was 30 µg/mL; in data set [1] (30 mins) it was 48 µg/mL; in data set [1] (60 mins), 84 µg/mL; in data set [1] (90 mins) it was 107 µg/mL; in data set [1] (120 mins), 144 µg/mL; in data set [2] (15 mins), 85 µg/mL. Also, the “Concentration in Solution” value in data set [2] (30 mins) was determined as 169 µg/mL; in data set [2] (60 mins), 369 µg/mL; in data set [2] (90 mins), 453 µg/mL; in data set [2] (120 mins) it was 529 µg/mL. For the same compound, the results for the “physical stability by x-ray powder diffraction” value in data set [3] (7 days) and in data set [3] (one day) were “the result remains the same” and “near total loss of crystallinity”, respectively.
For the compound `O=C1[C@H](CC[C@H](O)c2ccc(F)cc2)[C@@H](c2ccc(O)cc2)N1c1ccc(F)cc1` [Ezetimibe, (3R,4S)-1-(4-fluorophenyl)-3-[(3S)-3-(4-fluorophenyl)-3-hydroxypropyl]-4-(4-hydroxyphenyl)azetidin-2-one], in data set [4], the solubility entry is listed as “practically insoluble”. Besides, the “additional/incremental (median) reduction of LDL-C” value in data set [5] is given as “about 32%”. In addition, the “incremental reduction in LDL-C levels” value in data set [6] (ezetimibe in combination with statins (Catapano et al. 2016)) is 15-20%. Also, in data set [6] (ezetimibe mono-therapy, hyperlipidemic patients (Catapano et al. 2016)), the LDL-C levels reduced was 15-22%. Moreover, the “mean reduction in LDL-C compared with placebo” value in data set [6] (ezetimibe monotherapy, hypercholesterolemia, meta-analysis of 8 randomized studies) is 18.58%. In data set [6] (statin and ezetimibe in combination, meta-analysis of 27 studies), the “greater reduction in LDL-C compared with statin alone” value is recorded as 15.1%.
With `CCOC(=O)N1c2ccc(C(F)(F)F)cc2[C@@H](N(Cc2cc(C(F)(F)F)cc(C(F)(F)F)c2)c2ncc(OCCCC(=O)O)cn2)C[C@H]1CC` [amorphous obicetrapib hemicalcium], the moisture uptake entry in data set [7] was “less than 5%”. Also, the “physical stability by x-ray powder diffraction” value in data set [3] (7 days) and in data set [3] (14 days) was “remained amorphous” throughout.
